Data: patent publication US9249087B2, “HDAC inhibitors and therapeutic methods using the same” (THE BOARD OF TRUSTEES OF THE UNIVERSITY OF ILLINOIS, priority 2011, dated 2016)
Where a name gives a salt, the structure may show the parent alone. Read-outs that look alike come from different tables or passages of the source.

Key:
Assay type in all cases: biochemical
Human HDAC1 = Human HDAC1 (Homo sapiens (Human), UniProt Q13547); experiment: HDAC1 fluorogenic peptide deacetylation inhibition assay
Human HDAC6 = Human HDAC6 (Homo sapiens (Human), UniProt Q9UBN7); experiment: HDAC6 fluorogenic peptide deacetylation inhibition assay; conditions: for HDAC6 Selectivity (HDAC1/HDAC6): ratio HDAC1 IC50/HDAC6 IC50; for BEI: binding efficiency index, BEI=pIC50/MW, MW in kDa
HDAC2 = HDAC2 (Homo sapiens (Human), UniProt Q92769); experiment: HDAC2 fluorogenic peptide deacetylation inhibition assay; conditions: average of two experiments; read-out: HDAC Isoform IC50 (μM) 2
HDAC8 = HDAC8 (Homo sapiens (Human), UniProt Q9BY41); experiment: HDAC8 inhibition assay (fluorogenic diacyl peptide)
HDAC9 = HDAC9 (Homo sapiens (Human), UniProt Q9UKV0); experiment: HDAC9 inhibition assay (Acetyl-Lys(trifluoroacetyl)-AMC substrate); conditions: average of two experiments; read-out: HDAC Isoform IC50 (μM) 9
[1] = average of two experiments, read-out: HDAC Isoform IC50 (μM) 1
[2] = average of two experiments, read-out: HDAC Isoform IC50 (μM) 6
[3] = average of two experiments, read-out: HDAC Isoform IC50 (μM) 8
[4] = Table 3, mean of two experiments ± standard deviation, read-out: HDAC1 IC50
[5] = Table 3, mean of two experiments ± standard deviation, read-out: HDAC6 IC50
[6] = Table 3, mean of two experiments ± standard deviation, read-out: HDAC8 IC50

Sequence of Human HDAC1 (Q13547 whole entry): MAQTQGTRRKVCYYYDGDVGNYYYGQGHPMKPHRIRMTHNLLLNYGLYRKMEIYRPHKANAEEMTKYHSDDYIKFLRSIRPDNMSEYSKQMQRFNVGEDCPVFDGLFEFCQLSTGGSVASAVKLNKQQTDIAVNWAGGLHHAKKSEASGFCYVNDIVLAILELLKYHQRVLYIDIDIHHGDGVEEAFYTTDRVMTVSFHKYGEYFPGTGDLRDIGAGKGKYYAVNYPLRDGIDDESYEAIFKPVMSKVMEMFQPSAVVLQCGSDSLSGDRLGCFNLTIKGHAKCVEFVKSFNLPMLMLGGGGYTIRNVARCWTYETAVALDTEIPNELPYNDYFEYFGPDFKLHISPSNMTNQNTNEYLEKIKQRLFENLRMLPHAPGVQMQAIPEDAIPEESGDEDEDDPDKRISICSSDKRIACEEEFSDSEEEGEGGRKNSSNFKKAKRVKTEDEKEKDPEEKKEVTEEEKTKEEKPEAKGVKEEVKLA
Sequence of HDAC9 (Q9UKV0 whole entry, canonical isoform): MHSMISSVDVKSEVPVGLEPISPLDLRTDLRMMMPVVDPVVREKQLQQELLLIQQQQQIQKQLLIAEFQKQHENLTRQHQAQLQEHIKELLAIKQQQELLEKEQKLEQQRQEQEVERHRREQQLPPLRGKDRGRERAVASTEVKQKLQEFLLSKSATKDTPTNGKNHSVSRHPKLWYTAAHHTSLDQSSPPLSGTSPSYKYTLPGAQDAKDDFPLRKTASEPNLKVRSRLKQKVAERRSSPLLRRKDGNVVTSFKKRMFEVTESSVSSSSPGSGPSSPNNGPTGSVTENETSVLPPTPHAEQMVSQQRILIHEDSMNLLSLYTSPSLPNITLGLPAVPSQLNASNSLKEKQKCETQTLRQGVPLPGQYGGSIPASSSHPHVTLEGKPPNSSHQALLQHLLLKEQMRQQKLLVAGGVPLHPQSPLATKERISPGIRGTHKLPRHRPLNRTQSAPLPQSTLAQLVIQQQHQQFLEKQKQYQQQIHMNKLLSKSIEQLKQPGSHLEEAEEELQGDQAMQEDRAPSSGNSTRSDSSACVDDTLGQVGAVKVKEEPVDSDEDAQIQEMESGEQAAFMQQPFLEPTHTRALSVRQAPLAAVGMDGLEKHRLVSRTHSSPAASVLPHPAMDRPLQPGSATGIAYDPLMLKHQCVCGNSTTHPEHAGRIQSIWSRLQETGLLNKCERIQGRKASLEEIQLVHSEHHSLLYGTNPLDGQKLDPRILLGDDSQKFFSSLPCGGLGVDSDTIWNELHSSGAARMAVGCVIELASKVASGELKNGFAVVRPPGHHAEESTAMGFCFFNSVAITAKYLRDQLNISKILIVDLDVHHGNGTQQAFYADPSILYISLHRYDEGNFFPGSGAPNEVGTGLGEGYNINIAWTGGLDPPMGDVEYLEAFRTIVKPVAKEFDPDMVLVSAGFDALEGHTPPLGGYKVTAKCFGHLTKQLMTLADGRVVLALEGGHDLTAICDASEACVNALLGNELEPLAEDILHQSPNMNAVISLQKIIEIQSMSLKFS
Sequence of HDAC8 (Q9BY41 whole entry, canonical isoform): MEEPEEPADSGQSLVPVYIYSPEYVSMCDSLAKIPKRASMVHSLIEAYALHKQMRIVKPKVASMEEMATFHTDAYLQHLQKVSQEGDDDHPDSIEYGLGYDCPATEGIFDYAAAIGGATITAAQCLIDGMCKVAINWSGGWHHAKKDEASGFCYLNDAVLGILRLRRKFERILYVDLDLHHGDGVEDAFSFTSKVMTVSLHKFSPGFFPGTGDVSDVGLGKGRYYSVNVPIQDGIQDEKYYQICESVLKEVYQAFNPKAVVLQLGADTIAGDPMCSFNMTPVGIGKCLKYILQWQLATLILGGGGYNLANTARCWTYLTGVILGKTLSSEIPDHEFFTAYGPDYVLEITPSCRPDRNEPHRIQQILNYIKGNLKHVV
Sequence of HDAC2 (Q92769 whole entry, canonical isoform): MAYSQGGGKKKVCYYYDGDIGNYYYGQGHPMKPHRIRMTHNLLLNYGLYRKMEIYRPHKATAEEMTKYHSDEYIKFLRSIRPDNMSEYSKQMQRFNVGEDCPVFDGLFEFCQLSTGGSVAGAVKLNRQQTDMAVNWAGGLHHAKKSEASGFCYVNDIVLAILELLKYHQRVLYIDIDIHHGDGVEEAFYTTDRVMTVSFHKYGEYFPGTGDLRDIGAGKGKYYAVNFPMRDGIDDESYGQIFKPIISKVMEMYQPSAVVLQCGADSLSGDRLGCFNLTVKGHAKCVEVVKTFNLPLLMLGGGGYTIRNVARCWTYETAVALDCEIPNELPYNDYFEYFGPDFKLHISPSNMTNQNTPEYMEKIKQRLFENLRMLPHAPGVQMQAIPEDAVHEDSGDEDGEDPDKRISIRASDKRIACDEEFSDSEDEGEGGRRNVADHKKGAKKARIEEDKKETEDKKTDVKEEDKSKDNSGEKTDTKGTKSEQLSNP
Sequence of Human HDAC6 (Q9UBN7 whole entry, canonical isoform): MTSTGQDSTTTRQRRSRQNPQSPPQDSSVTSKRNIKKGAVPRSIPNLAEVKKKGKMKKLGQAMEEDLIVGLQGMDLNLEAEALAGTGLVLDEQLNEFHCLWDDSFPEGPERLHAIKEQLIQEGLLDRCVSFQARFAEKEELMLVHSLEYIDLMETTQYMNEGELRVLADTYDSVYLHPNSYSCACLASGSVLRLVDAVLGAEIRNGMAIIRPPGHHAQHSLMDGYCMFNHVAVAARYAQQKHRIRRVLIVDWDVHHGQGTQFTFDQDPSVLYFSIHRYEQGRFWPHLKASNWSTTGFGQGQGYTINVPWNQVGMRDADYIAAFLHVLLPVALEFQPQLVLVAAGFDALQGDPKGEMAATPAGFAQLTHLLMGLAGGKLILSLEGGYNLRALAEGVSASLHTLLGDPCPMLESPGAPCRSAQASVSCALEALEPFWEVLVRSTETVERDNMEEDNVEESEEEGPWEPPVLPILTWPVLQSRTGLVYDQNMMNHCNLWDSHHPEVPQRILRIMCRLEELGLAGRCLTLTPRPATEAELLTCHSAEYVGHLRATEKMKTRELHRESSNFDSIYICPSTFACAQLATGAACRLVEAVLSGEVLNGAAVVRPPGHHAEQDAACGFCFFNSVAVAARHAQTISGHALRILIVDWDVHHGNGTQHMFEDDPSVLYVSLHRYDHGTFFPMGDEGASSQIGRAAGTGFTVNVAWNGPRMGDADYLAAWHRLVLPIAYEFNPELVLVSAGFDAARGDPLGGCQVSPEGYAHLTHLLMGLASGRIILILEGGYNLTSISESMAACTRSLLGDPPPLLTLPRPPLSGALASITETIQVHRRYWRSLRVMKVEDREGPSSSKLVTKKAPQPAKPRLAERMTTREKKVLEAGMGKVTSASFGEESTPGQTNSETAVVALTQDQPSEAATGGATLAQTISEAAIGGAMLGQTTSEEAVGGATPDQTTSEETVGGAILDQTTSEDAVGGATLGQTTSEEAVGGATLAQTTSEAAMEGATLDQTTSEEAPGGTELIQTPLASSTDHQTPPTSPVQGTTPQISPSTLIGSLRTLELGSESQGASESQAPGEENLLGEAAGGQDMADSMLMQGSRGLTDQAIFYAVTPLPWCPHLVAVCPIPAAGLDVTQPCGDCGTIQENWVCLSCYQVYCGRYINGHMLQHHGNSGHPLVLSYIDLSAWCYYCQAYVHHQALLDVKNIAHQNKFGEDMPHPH

Row | IC50 (Human HDAC1; [1]) [µM] | IC50 (Human HDAC6; [2]) [µM] | Structure (SMILES) | HDAC6 Selectivity (HDAC1/HDAC6) (Human HDAC6) | other results
1 | > 30 | > 30 | CC(=O)c1ccc(Cn2ccc3ccccc32)cc1 [Compound 23, 1-(4-((1H-Indol-1-yl)methyl)phenyl)ethanone] | – | –
2 | 0.623 | 0.00017 | CS(=O)(=O)NCCc1cn(Cc2ccc(C(=O)NO)cc2)c2ccccc12 [Compound 30, N-Hydroxy-4-((3-(2-(methylsulfonamido)ethyl)-1H-indol-1-yl)methyl)benzamide] | – | –
3 | 6.79 | 0.00511 | Cc1cn(Cc2ccc(C(=O)NO)cc2)c2ccccc12 [Compound 6, N-Hydroxy-4-((3-methyl-1H-indol-1-yl)methyl)benzamide] | – | IC50 (HDAC2): 11.9 µM; IC50 (HDAC8; [3]): 0.911 µM; IC50 (HDAC9): 14.5 µM
4 | – | – | O=C(NO)c1ccc(CN2CCCC2)cc1 [drawing 150] | 54 | –
5 | – | – | Cc1cn(Cc2ccc(C(=O)NO)cc2)c2ccccc12 [drawing 159] | – | IC50 (Human HDAC1; [4]): 6.79 ± 0.29 µM; IC50 (Human HDAC6; [5]): 0.0051 ± 0.0008 µM; BEI (Human HDAC6): 29.6; IC50 (HDAC8; [6]): 0.911 ± 0.042 µM
6 | – | – | O=C(NO)c1ccc(Cn2cc(Cc3ccccc3)c3ccccc32)cc1 [drawing 140] | 451 | –
7 | – | – | O=C(NO)c1ccc(CN(c2ccccc2)c2ccccc2)cc1 [drawing 162] | – | IC50 (Human HDAC1; [4]): 6.66 ± 0.51 µM; BEI (Human HDAC6): 26.3; IC50 (HDAC8; [6]): 2.38 ± 0.25 µM
8 | 27.7 | 0.047 | CC(C)c1nc2ccccc2n1Cc1ccc(C(=O)NO)cc1 [Compound 39, N-Hydroxy-4-((2-isopropyl-1H-benzo[d]imidazol-1-yl)methyl)benzamide] | – | –
9 | 3.09 | 0.00146 | Cc1c(CN)c2ccccc2n1Cc1ccc(C(=O)NO)cc1 | 2116 | –
10 | 23.8 | 0.124 | CC(C)N(Cc1ccc(C(=O)NO)cc1)C(C)C [Compound 53, 4-((Diisopropylamino)methyl)-N-hydroxybenzamide] | – | IC50 (HDAC8; [3]): 1.92 µM
11 | 0.94 | 0.00348 | O=C(NO)c1ccc(Cn2cnc3cncnc32)cc1 [Compound 12, 4-((9H-Purin-9-yl)methyl)-N-hydroxybenzamide] | – | –
12 | – | – | O=C(NO)c1ccc(Cn2cnc3cncnc32)cc1 [drawing 143] | 270 | –
13 | – | – | O=C(NO)c1ccc(Cn2cccc2)cc1 [drawing 147] | 183 | –
14 | 52.4 | 0.126 | CN(C)CCc1nc2ccccc2n1Cc1ccc(C(=O)NO)cc1 [Compound 38, 4-((2-(2-(Dimethylamino)ethyl)-1H-benzo[d]imidazol-1-yl)methyl)-N-hydroxybenzamide] | – | –
15 | 8.79 | 0.0092 | Cc1nc2ccccc2n1Cc1ccc(C(=O)NO)cc1 [Compound 32, N-hydroxy-4-((2-methyl-1H-benzo[d]imidazol-1-yl)methyl)benzamide] | – | –
16 | – | – | O=C(NO)c1ccc(Cn2cnc3ncncc32)cc1 [drawing 144] | 251 | –
17 | 14.7 | 0.047 | CC(=O)NCCCc1nc2ccccc2n1Cc1ccc(C(=O)NO)cc1 [Compound 36, 4-((2-(3-Acetamidopropyl)-1H-benzo[d]imidazol-1-yl)methyl)-N-hydroxybenzamide.TFA] | – | –
18 | 1.47 | 0.0109 | O=C(NO)c1ccc(Cn2cccn2)cc1 [Compound 43, 4-((1H-Pyrazol-1-yl)methyl)-N-hydroxybenzamide] | – | –
19 | – | – | Cc1cc2ccccc2n1Cc1ccc(C(=O)NO)cc1 [drawing 158] | – | IC50 (Human HDAC1; [4]): 5.34 ± 0.16 µM; IC50 (Human HDAC6; [5]): 0.0025 ± 0.0004 µM; BEI (Human HDAC6): 30.7; IC50 (HDAC8; [6]): 0.397 ± 0.099 µM

Row | IC50 (Human HDAC1; [1]) [µM] | IC50 (Human HDAC6; [2]) [µM] | Structure (SMILES) | HDAC6 Selectivity (HDAC1/HDAC6) (Human HDAC6) | other results
20 | 27.9 | 0.15 | COC[C@@H]1CCCN1Cc1ccc(C(=O)NO)cc1 [Compound 59, (S)-N-Hydroxy-4-((2-(methoxymethyl)pyrrolidin-1-yl)methyl)benzamide.TFA] | – | IC50 (HDAC8; [3]): 1.82 µM
21 | – | – | O=C(NO)c1ccc(Cn2ccc3ccccc32)cc1 [drawing 157] | – | IC50 (Human HDAC1; [4]): 5.83 ± 0.7 µM; IC50 (Human HDAC6; [5]): 0.0097 ± 0.0003 µM; BEI (Human HDAC6): 30.1; IC50 (HDAC8; [6]): 0.417 ± 0.04 µM
22 | 12.2 | 0.0701 | CN(C)c1cccc(Cc2ccc(C(=O)NO)cc2)c1 [Compound 49, 4-(3-(Dimethylamino)benzyl)-N-hydroxybenzamide] | – | –
23 | – | – | Cc1cc2ccccc2n1Cc1ccc(C(=O)NO)cc1 [drawing 137] | 2127 | IC50 (HDAC2): 8.14 µM; IC50 (HDAC9): 18.3 µM
24 | 6.66 | 4.5 | O=C(NO)c1ccc(CN(c2ccccc2)c2ccccc2)cc1 [Compound 55, 4-((Diphenylamino)methyl)-N-hydroxybenzamide] | – | selectivity for HDAC6 vs HDAC8 (Human HDAC6): over 500 fold; IC50 (HDAC8; [3]): 2.38 µM
25 | 8.54 | 0.0294 | O=C(NO)c1ccc(Cn2cnc3ccccc32)cc1 [Compound 27, 4-((1H-Benzo[d]imidazol-1-yl)methyl)-N-hydroxybenzamide.TFA] | – | –
26 | 5.34 | 0.00251 | Cc1cc2ccccc2n1Cc1ccc(C(=O)NO)cc1 [Compound 4, N-Hydroxy-4-((2-methyl-1H-indol-1-yl)methyl)benzamide] | – | IC50 (HDAC2): 8.14 µM; selectivity against HDAC1 (Human HDAC6; HDAC6 vs HDAC1, running text): 2125 fold; IC50 (Human HDAC6; read-out: HDAC6 IC50): 0.0025 µM; IC50 (HDAC8; [3]): 0.397 µM; IC50 (HDAC9): 18.3 µM
27 | – | – | Cc1cn(Cc2ccc(C(=O)NO)cc2)c2ccccc12 [drawing 138] | 1329 | IC50 (HDAC2): 11.9 µM; IC50 (HDAC9): 14.5 µM
28 | – | – | O=C(NO)c1ccc(Cn2ccc3ccccc32)cc1 [drawing 136] | 598 | IC50 (HDAC2): 9.19 µM; IC50 (HDAC9): 8.16 µM
29 | 3.56 | 0.0142 | O=C(NO)c1ccc(Cn2cnc3ncncc32)cc1 [Compound 14, 4-((7H-Purin-7-yl)methyl)-N-hydroxybenzamide] | – | –
30 | > 30 | > 30 | NC(=O)c1ccc(Cn2ccc3ccccc32)cc1 [Compound 22, 4-((1H-Indol-1-yl)methyl)benzamide] | – | –
31 | 3.09 | 0.00146 | Cc1c(CN(C)C)c2ccccc2n1Cc1ccc(C(=O)NO)cc1 [Compound 21, 4-((3-((Dimethylamino)methyl)-2-methyl-1H-indol-1-yl)methyl)-N-hydroxybenzamide] | – | –
32 | – | – | O=C(NO)c1ccc(Cn2cccn2)cc1 [drawing 148] | 135 | –
33 | – | – | O=C(NO)c1ccc(Cc2ccncc2)cc1 [drawing 145] | 181 | –
34 | > 30 | 6.28 | CCN(CC)Cc1ccc(C(=O)NO)cc1 [Compound 51, 4-((Diethylamino)methyl)-N-hydroxybenzamide] | – | IC50 (HDAC8; [3]): 9.43 µM
35 | > 30 | 1.25 | COC[C@H]1CCCN1Cc1ccc(C(=O)NO)cc1 [Compound 61] | – | IC50 (HDAC8; [3]): 5.59 µM
36 | 12.2 | 0.00408 | Cc1c(C)n(Cc2ccc(C(=O)NO)cc2)c2ccccc12 [Compound 8, 4-((2,3-Dimethyl-1H-indol-1-yl)methyl)-N-hydroxybenzamide] | – | –
37 | – | – | CCN(CC)Cc1ccc(C(=O)NO)cc1 [drawing 153] | >5 | –
38 | – | – | CN(C)c1ccc(Cc2ccc(C(=O)NO)cc2)cc1 [drawing 146] | 577 | –

Row | Structure (SMILES) | IC50 (Human HDAC1; [1]) [µM] | IC50 (Human HDAC6; [2]) [µM] | HDAC6 Selectivity (HDAC1/HDAC6) (Human HDAC6) | other results
39 | CN1CCN(CCc2cn(Cc3ccc(C(=O)NO)cc3)c3ccccc23)CC1 [Compound 17, N-Hydroxy-4-{3-[2-(4-methyl-piperazin-1-yl)-ethyl]-indol-1-ylmethyl}-benzamide] | 1.23 | 0.00294 | – | IC50 (HDAC8; [3]): 0.174 µM
40 | O=C(NO)c1ccc(Cc2ccncc2)cc1 [Compound 45, N-Hydroxy-4-(pyridin-4-ylmethyl)benzamide] | 6.47 | 0.0358 | – | –
41 | O=C(NO)c1ccc(Cn2cc(Cc3ccccc3)c3ccccc32)cc1 [Compound 10, 4-((3-Benzyl-1H-indol-1-yl)methyl)-N-hydroxybenzamide] | 13.2 | 0.0293 | – | IC50 (HDAC8; [3]): 0.324 µM
42 | CN1CCN(CCc2cn(Cc3ccc(C(=O)NO)cc3)c3ccccc23)CC1 [drawing 142] | 1.23 | 0.00294 | 418 | IC50 (HDAC8; [3]): 0.174 µM
43 | O=C(NO)c1ccc(CN2CCCC2)cc1 [Compound 57, N-Hydroxy-4-(pyrrolidin-1-ylmethyl)benzamide.TFA] | 29 | 0.54 | – | IC50 (HDAC8; [3]): 1.2 µM
44 | CN(C)c1ccc(Cc2ccc(C(=O)NO)cc2)cc1 [Compound 47, 4-(4-(Dimethylamino)benzyl)-N-hydroxybenzamide] | 6.87 | 0.0119 | – | –
45 | O=C(NO)c1ccc(Cn2cccc2)cc1 [Compound 41, 4-((1H-Pyrrol-1-yl)methyl)-N-hydroxybenzamide] | 5.73 | 0.0313 | – | –
46 | O=C(NO)c1ccc(Cn2ccc3ccccc32)cc1 [Compound 2, 4-((1H-Indol-1-yl)methyl)-N-hydroxybenzamide] | 5.83 | 0.00975 | – | IC50 (HDAC2): 9.19 µM; IC50 (HDAC8; [3]): 0.417 µM; IC50 (HDAC9): 8.16 µM
